Reference: ChEMBL document CHEMBL2401715, “Synthesis, antitumor and antibacterial activities of some novel tetrahydrobenzo[4,5]thieno[2,3-d]pyrimidine derivatives” (Eur J Med Chem, 2013)

How the values were obtained:
[1] = system: Pseudomonas aeruginosa; experiment: Antibacterial activity against Pseudomonas aeruginosa ATCC 10145 assessed as growth inhibition by broth microdilution method; type: functional
[2] = system: Staphylococcus aureus; experiment: Antibacterial activity against Staphylococcus aureus ATCC 12600 assessed as growth inhibition by broth microdilution method; type: functional
[3] = system: Pseudomonas aeruginosa; experiment: Antibacterial activity against Pseudomonas aeruginosa ATCC 10145 assessed as growth inhibition after 24 to 48 hrs by kirby-bauer disc diffusion method; type: functional; also: test concentration or dose not given here
[4] = system: Escherichia coli; experiment: Antibacterial activity against Escherichia coli ATCC 11775 assessed as growth inhibition after 24 to 48 hrs by kirby-bauer disc diffusion method; type: functional, DSM 30083 = JCM 1649; also: test concentration or dose not given here
[5] = system: Staphylococcus aureus; experiment: Antibacterial activity against Staphylococcus aureus ATCC 12600 assessed as growth inhibition after 24 to 48 hrs by kirby-bauer disc diffusion method; type: functional; also: test concentration or dose not given here
[6] = system: Bacillus subtilis; experiment: Antibacterial activity against Bacillus subtilis ATCC 6051 assessed as growth inhibition after 24 to 48 hrs by kirby-bauer disc diffusion method; type: functional; also: test concentration or dose not given here
[7] = system: HepG2; experiment: Cytotoxicity against human HepG2 cells assessed as cell survival after 48 hrs by SRB assay; type: functional, cell-based; details: HepG2, 48 h
[8] = system: MCF7; experiment: Cytotoxicity against human MCF7 cells assessed as cell survival after 48 hrs by SRB assay; type: functional, cell-based; details: MCF7, 48 h

Row | MIC [1] | MIC [2] | SMILES | diameter of the inhibition zone (DIZ) [3] | diameter of the inhibition zone (DIZ) [4] | diameter of the inhibition zone (DIZ) [5] | diameter of the inhibition zone (DIZ) [6] | IC50 [7] | IC50 [8]
1 | 11 µg/mL | 8 µg/mL | COc1cc(-c2nc3sc4c(c3c(=O)n2-c2ccc3c(C)c5ccc(N)cc5nc3c2)CCCC4)cc(OC)c1OC | 25 mm | 22 mm | 26 mm | 23 mm | 5.5 µM | 0.86 µM
2 | 18 µg/mL | 13 µg/mL | Cc1c2ccc(N)cc2nc2cc(-n3c(/C=C/c4ccccc4)nc4sc5c(c4c3=O)CCCC5)ccc12 | 21 mm | 21 mm | 24 mm | 20 mm | 5.82 µM | 0.19 µM
